Test results taken from patent US8940774B2, “Tris-Quaternary Ammonium Salts and Methods for Modulating Neuronal Nicotinic Acetylcholine Receptors” (University of Kentucky Research Foundation, priority 2005, dated 2015).

Tests used:
[1] = target: T1, α7-type neuronal nicotinic acetylcholine receptors (Rattus norvegicus, UniProt Q05941); assay: Inhibition of [3H]Methyllycaconitine (MLA) binding assay, rat brain membranes; settings: % inhibition at 100 nM concentration of analog; rat brain membranes; 2.5 nM [3H]MLA; read-out: Inhibition of [3H]MLA binding
T1 construct: from tissue; host or cells: rat brain membranes (whole brain without cortex, striatum and cerebellum)
Description: Rat brain was dissected into the whole brain tissue without cortex, striatum and cerebellum and was frozen in liquid nitrogen and stored at −70° C. until use. The brain tissue was homogenized with a Tekmar Polytron (setting 40) in 20 volumes of ice-cold hypotonic buffer (2 mM HEPES, 14.4 mM NaCl, 0.15 mM KCl, 0.2 mM CaCl2 and 0.1 mM MgSO4, pH=7.5). The homogenate was incubated at 37° C. for 10 minutes and centrifuged at 25,000 g for 15 minutes at […] The pellet was washed 3 times more by resuspension in 20 volumes of the same buffer and centrifugation at the above parameters. The final pellet was stored at −20° C. under 4.6 mL of the incubation buffer and was suspended just before the incubation with radioligand.
The binding of [^3H]MLA to probe α7-type neuronal nicotinic acetylcholine receptors was measured using a modification of the method of Davies at al., “Characterisation of the binding of [^3H]methyllycaconitine (MLA): a radioligand for labelling α7-type neuronal nicotinic acetylcholine receptors,” Neuropharmacology, 38, 679-690 (1999). [^3H]MLA (25.4 Ci/mmol) was purchased from Tocris Cookson Ltd., Bristol, U.K. Binding was performed in duplicate, in a final volume of 250 μL of the incubation medium, containing 20 mM HEPES, 144 mM NaCl, 1.5 mM KCl, 2 mM CaCl2, 1 mM MgSO4 and 0.05% BSA, pH=7.5. Reaction was initiated by the addition of 100 μL of membrane suspension to the samples containing a desired concentration of test compounds and […] [^3H]MLA (final concentration) and incubated for 2 hours it room temperature. Total binding was measured in the absence of unlabelled ligand, and nonspecific binding was determined by the presence of 1 μM unlabelled MLA. The binding reaction was terminated by dilution of samples with 3 mL of ice-cold incubation buffer followed by immediate filtration through glass fiber filters (S&S, grade #32, presoaked in 0.5% polyethylenimine) using a Brandel harvester system. Filters were rinsed three times with 3 mL of ice-cold buffer, transferred to scintillation vials and 4 mL of scintillation cocktail was added. Protein was measured using the Bradford dye-binding procedure with bovine serum albumin as the standard.
The tris-quaternary ammonium salts were evaluated for their ability to displace [^3H]MLA binding from rat brain membranes.
(§1) Data are % inhibition at 100 nM concentration of analog for at least 1-3 independent experiments. Specific binding in the [^3H]NIC binding assay is calculated at the difference between the total binding of [^3H]NIC and nonspecific binding in the presence of 10 μM cold nicotine. Specific binding for the [^3H]MLA binding assay is calculated as the difference between the total binding of 2.5 nM [^3H]MLA to the receptors alone and its nonspecific binding in the presence of 1 μM cold MLA. Analog-induced inhibition of nicotine-evoked [^3H]DA release is calculated as a percent of that in the absence of analog.

[2] = test system: NIC-evoked [3H]DA release from rat striatal slices; assay: Nicotine-evoked [3H]dopamine release assay, superfused rat striatal slices; format: cell-based; settings: 100 nM analog superfused 60 minutes prior to NIC (10 μM), percent of that in the absence of analog
Description: Rat striatal slices (500 μm thickness, 6-8 mg wet weight) were incubated for 30 minutes in Krebs buffer (118 mM NaCl, 4.7 mM KCl, 1.2 mM MgCl2, 1.0 mM NaH2PO4, 1.3 mM CaCl2, 11.1 mM glucose, 25 mM NaHCO3, 0.11 mM L-ascorbic acid and 0.004 mM disodium EDTA; pH 7.4, and saturated with 95% O2/5% CO2) in a metabolic shaker at 34° C. Slices were rinsed with 15 mL of fresh buffer and incubated for an additional 30 minutes in fresh buffer containing 0.1 μM [^3H]dopamine (DA; 6 slices/3 mL). Subsequently, slices were rinsed with 15 mL of fresh buffer and transferred to a glass superfusion chamber. Slices were superfused (1.0 mL/min) for 60 minutes with Krebs buffer containing nomifensine (10 μM) and pargyline (10 μM) and maintained at 34° C., pH 7.4 with continual aeration (95% O2/5% CO2). Two five minute samples (5 mL each) were collected to determine basal outflow of [^3H]DA. Analogs were added to the superfusion buffer after the collection of the second sample and remained in the buffer until 12 consecutive five minute samples were collected. Subsequently, S-(−)-nicotine (10 μM) was added to the buffer and an additional 12 consecutive five minute samples were collected. At the end of the experiment, each slice was solubilized and the [^3H] content of the tissue determined.
Radioactivity in the superfusate and tissue samples were determined by liquid scintillation spectroscopy. Fractional release for tritium collected in each sample was divided by the total tritium present at the time of sample collection and was expressed as a percentage of total tritium. Basal [^3H] outflow was calculated from the average of the tritium collected in the two five-minute samples just before addition of the analog. The sum of the increase in collected tritium resulting from either exposure to the test compound or exposure to S-(−)-nicotine in the absence cod presence of the test compound equaled total [^3H] overflow. [^3H] Overflow was calculated by subtracting the [^3H] outflow during an equivalent period of prestimulation from the values in samples collected during and after drug exposure. Inasmuch as the radiolabelled compounds were not separated and identified, the tritium in the superfusate is referred to as either [^3H] outflow or [^3H] overflow, rather than [^3H]DA. [^3H] Overflow primarily represents [^3H]DA in the presence of nomifesine and pargyline in the superfusion buffer. […]
Analogs were also evaluated for their ability to inhibit NIC evoked [^3H]DA release. In these experiments, the striatal slices were superfused for 60 minutes with 100 nM concentration of the analogs prior to NIC (10 μM) exposure. Antagonist activity was evaluated by comparing the NIC-evoked [^3H] overflow in the absence and presence of the analogs. The relative order of potency of the analogs for inhibition of NIC-evoked [^3H]DA release from rat striatal slices is illustrated in Table 1.
as §1

[3] = target: T2, Rat Striatal Nicotinic Receptors (Rattus norvegicus, UniProt P09483+P12390); assay: Inhibition of [3H]Nicotine (NIC) binding assay, rat striatal membranes; settings: % inhibition at 100 nM concentration of analog, 3 nM [3H]NIC
T2 construct: from tissue; host or cells: rat striatal membranes
Description: Striata from two rats were dissected, pooled, and homogenized with a Tekmar polytron in 10 vol of ice-cold modified Krebs-HEPES buffer (20 mM HEPES, 118 mM NaCl, 4.8 mM, KCl, 2.5 mM CaCl2, 1.2 mM MgSO4, adjusted to pH 7.5). The homogenates were incubated at 37° C. for 5 minutes and centrifuged at 15,000 g for 20 minutes. The pellet was resuspended in 10 volumes of ice-cold MilliQ water, incubated for 5 minutes at 37° C., and centrifuged at 15,000 g for 20 minutes. The second pellet was then resuspended in 10 volumes of fresh ice-cold 10% Krebs-HEPES buffer, incubated at 37° C., and centrifuged at 15,000 g for 20 minutes. The latter sequence of resuspension, incubation and centrifugation was repeated. The pellet was frozen under fresh 10% Krebs-HEPES buffer and stored at −40° C. until assay. Upon assay, the pellet was resuspended in Krebs-HEPES buffer, incubated at 37° C. for 5 minutes, and centrifuged at 15,000 g for 20 minutes. The final pellet was resuspended in 3.6 mL ice-cold MilliQ water which provided for approximately 200 μg protein per 100 μL aliquot. Competition assays were performed in duplicate in a final volume of 200 μL Krebs-HEPES buffer containing […] Tris buffer (pH 7.5 at 4° C.). Reactions were initiated by addition of 100 μL of membrane suspension to 3 nM [^3H]NIC (50 μL) and one of at least nine concentrations of analog (50 μL). After a 90 minute incubation at 4° C., reactions were terminated by dilution of the samples with 3 mL of ice-cold Krebs-HEPES buffer followed immediately by filtration through Whatman GF/B glass fiber filters (presoaked in 0.5% polyethyleneimine) using a Brandel Cell Harvester. Filters were rinsed three times with 3 mL of ice-cold Krebs-HEPES buffer, transferred to scintillation vials, and 5 mL scintillation cocktail (Research Products international Corp., Mt. Prospect, Ill.) added. Nonspecific binding determined in triplicate was defined as binding in the presence of 10 μM NIC. Binding parameters were determined using the weighted, least squares non-linear regression. The tris-quaternary ammonium salts were evaluated for their ability to displace [^3H]NIC binding from rat striatal membranes.
as §1

T1 sequence (Q05941 23-502): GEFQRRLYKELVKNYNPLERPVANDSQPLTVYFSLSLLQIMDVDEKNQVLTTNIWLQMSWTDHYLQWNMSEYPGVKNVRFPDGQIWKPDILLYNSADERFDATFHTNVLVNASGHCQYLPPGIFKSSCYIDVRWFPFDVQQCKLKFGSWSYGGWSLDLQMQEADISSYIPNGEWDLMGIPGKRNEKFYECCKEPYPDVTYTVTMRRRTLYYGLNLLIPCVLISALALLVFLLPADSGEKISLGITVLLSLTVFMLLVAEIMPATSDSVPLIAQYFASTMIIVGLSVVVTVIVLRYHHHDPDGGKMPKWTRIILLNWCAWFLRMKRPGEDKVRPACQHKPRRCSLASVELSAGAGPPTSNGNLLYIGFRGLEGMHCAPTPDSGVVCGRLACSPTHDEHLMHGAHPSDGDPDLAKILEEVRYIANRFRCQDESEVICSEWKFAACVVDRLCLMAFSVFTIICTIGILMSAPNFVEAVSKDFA
T2 sequence (P09483 31-630): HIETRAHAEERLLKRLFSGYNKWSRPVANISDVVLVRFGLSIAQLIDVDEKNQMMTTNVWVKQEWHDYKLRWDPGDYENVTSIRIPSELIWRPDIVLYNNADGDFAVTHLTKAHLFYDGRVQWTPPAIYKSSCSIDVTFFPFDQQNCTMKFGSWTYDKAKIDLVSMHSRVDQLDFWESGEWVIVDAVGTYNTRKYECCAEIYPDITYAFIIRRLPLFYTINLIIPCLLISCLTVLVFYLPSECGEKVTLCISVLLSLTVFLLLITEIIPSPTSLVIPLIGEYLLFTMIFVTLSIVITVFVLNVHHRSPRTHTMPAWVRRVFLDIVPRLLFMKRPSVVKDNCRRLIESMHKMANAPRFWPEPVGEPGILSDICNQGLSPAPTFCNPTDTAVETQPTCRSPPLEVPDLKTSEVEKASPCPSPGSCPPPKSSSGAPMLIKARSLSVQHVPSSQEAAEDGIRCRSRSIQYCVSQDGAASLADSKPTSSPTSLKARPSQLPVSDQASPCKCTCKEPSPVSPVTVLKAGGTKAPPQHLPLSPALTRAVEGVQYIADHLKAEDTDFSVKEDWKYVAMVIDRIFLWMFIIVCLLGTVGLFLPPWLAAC
T2 sequence (P12390 25-500): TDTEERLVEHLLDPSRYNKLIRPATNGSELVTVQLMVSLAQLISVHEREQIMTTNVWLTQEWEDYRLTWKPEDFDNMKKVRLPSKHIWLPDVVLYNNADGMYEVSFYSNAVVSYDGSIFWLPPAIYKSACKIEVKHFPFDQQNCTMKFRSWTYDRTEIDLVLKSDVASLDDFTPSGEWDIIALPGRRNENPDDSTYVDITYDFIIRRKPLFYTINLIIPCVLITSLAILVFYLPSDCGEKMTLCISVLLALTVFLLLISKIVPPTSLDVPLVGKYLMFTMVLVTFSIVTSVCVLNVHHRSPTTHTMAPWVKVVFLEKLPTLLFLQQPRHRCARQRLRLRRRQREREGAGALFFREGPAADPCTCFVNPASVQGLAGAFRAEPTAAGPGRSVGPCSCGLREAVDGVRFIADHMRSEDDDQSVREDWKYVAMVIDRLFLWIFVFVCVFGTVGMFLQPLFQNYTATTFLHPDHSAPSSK

SMILES | inhibition at 0.1 µM [1] | inhibition at 0.1 µM [2] | inhibition at 0.1 µM [3]
Cc1cc(C)c[n+](CCCCCc2cc(CCCCC[n+]3cc(C)cc(C)c3)cc(CCCCC[n+]3cc(C)cc(C)c3)c2)c1 [GZ557A, 1,3,5-tris-[5-(3,5-lutidinium)-pentyl]-benzene tribromide] | 6.5 ± 3.6% | 39 ± 18% | 11 ± 2.9%
Cc1cc[n+](CCCCCc2cc(CCCCC[n+]3ccc(C)c(C)c3)cc(CCCCC[n+]3ccc(C)c(C)c3)c2)cc1C [GZ557B, 1,3,5-tris-[5-(3,4-lutidinium)-pentyl]-benzene tribromide] | 0.2 ± 0.2% | 50 ± 21% | 9.3 ± 4.1%
c1ccc(-c2ccc[n+](CCCCCc3cc(CCCCC[n+]4cccc(-c5ccccc5)c4)cc(CCCCC[n+]4cccc(-c5ccccc5)c4)c3)c2)cc1 [GZ558A, 1,3,5-tris-[5-(3-phenyl-pyridinium)-pentyl]-benzene tribromide] | 19 ± 1.7% | 6 ± 5% | 14 ± 5.8%
CCCCc1ccc[n+](CCCCCc2cc(CCCCC[n+]3cccc(CCCC)c3)cc(CCCCC[n+]3cccc(CCCC)c3)c2)c1 [GZ558B, 1,3,5-tris-[5-(3-butyl-pyridinium)-pentyl]-benzene tribromide] | 4.4 ± 3.3% | 68 ± 14% | 6.2 ± 4%
